From paper PMC10030653, “ClpC2 protects mycobacteria against a natural antibiotic targeting ClpC1-dependent protein degradation” (Communications Biology, 2023)
Numbered stars: 1 amine (or outer) side, 2 acyl side, 3 side chain; on linkers, the order of the positions; unused ones are H or OH. Square brackets hold non-standard residues; d marks the D form. Peptide text beside a SMILES is read from it. X1 = CC(C)([C@@H]1CO1)n1cc([C@@H](O)[C@H](N[*:1])C(=O)[*:2])c2ccccc21; Ala(3R-Me,3-isobutenyl) = CC(C)=C[C@@H](C)[C@H](N)C(=O)O; NMeLeu(5-OH,4R) = CN[C@@H](C[C@@H](C)CO)C(=O)O; Phe(βR-OMe) = CO[C@H](c1ccccc1)[C@H](N)C(=O)O; NMeL = CN[C@@H](CC(C)C)C(=O)O

Assays:
[1] = molecular target: Mtb ClpC1 NTD (ClpC1^1-145) (Mycobacterium tuberculosis, UniProt P9WPC9); test: biochemical; type: binding
Sequence of Mtb ClpC1 NTD (ClpC1^1-145) (P9WPC9 1-145): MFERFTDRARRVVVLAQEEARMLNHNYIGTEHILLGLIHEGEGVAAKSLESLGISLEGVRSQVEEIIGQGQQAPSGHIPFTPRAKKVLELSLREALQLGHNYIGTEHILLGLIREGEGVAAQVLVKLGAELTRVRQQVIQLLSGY

ClpC2 [2] = type: cell-based, Mycobacterium smegmatis; conditions: Msm WT, OD600 0.5, 150 nM CymA, 37 °C, from 1 h to 8 h after addition
ClpC2 [3] = type: cell-based, Mycobacterium smegmatis; conditions: Msm, 150 nM CymA, around 8 h after addition
[4] = system: ClpC1 hexamer/ClpP1P2 tetradecamer (ClpC1P); test: FITC-casein degradation assay; type: biochemical, Mycobacterium tuberculosis; conditions: 2 μM CymA
Description: Degradation of FITC-casein (Sigma) was carried out in 50 mM HEPES-KOH pH 7.1, 150 mM KCl, 20 mM MgCl2, 10% glycerol by 0.5 μM ClpC1 hexamer and 0.8 μM ClpP1P2 tetradecamer with the addition of 0.4 mM activator peptide benzyloxycarbonyl-L-leucyl-L-leucinal (PeptaNova), 0.5 mM DTT, 1 U/ml creatine phosphokinase, 20 mM phosphocreatine, 10 mM ATP at 37 °C. […] Whereas the effect of an excess of ClpC2 on the degradation of FITC-casein (10 μM) was carried out in the presence of 100 μM ClpC2. Fluorescence intensity increases upon degradation of FITC-casein as a consequence of fluorophore dequenching was monitored using the BioTek Synergy 2 Plate Reader with a 485/20 nm band-pass […] filter. Rates of degradation were determined from the initial slopes and used to determine the CymA-induced stimulation of ClpC1P activity at the different concentrations of ClpC2.

clpC2 mRNA = test: RT-qPCR of clpC2 expression after CymA; type: cell-based, Mycobacterium smegmatis; conditions: Msm, 150 nM CymA; for Cq value ClpC2 / Cq value RpoB (reference gene): 1 h
[5] = system: ClpC2 / clpC2 operator DNA; test: EMSA, ClpC2 binding to clpC2 operator DNA; parameters: species or system Mycobacterium tuberculosis; conditions: for fraction of DNA bound to ClpC2: 1 μM CymA
ClpC1 [6] = conditions: Msm, 150 nM CymA, 0-8 h
mycobacteria = conditions: cited from earlier work
Escherichia coli = conditions: cited from earlier work
Excerpt: (§1) CymA is a cyclic heptapeptide that is synthesised by the marine bacterium Streptomyces sp. CNB-982[33]–[35].

Staphylococcus aureus = conditions: cited from earlier work
Excerpt: as §1

ClpC1 NTD = conditions: cited from earlier work
ClpC1 [7] = conditions: cited from earlier work
Mycobacterium smegmatis = test: Growth curves of Msm strains with CymA
Description: Mycobacterium smegmatis MC^2155 SMR5 and derived strains were routinely grown at 37 °C with shaking in DIFCO™ Middlebrook7H9 broth (BD) supplemented with 0.05% Tween 80 and 0.2% glycerol. The antibiotics apramycin (50 µg/ml) or hygromycin B (100 µg/ml) were added as needed. […] The DMSO concentration of cultures was maintained at less than 1% in all instances.
Msm cultures were diluted to an OD600 of 0.005 in 7H9. […] The cultures were grown at 37 °C with shaking (200 rpm) and the culture growth monitored by periodically measuring the OD600.

In the case of CO[C@H](c1ccccc1)[C@@H]1NC(=O)[C@H](C)NC(=O)[C@H](C[C@@H](C)CO)N(C)C(=O)[C@H]([C@H](O)c2cn(C(C)(C)[C@@H]3CO3)c3ccccc23)NC(=O)[C@H]([C@H](C)C=C(C)C)NC(=O)[C@H](CC(C)C)N(C)C(=O)[C@H](C(C)C)NC1=O [CymA, cyclomarin A] (cyclo(A[Phe(βR-OMe)]V[NMeL][Ala(3R-Me,3-isobutenyl)][X1][NMeLeu(5-OH,4R)])), the Kd [1] is reported as 2.3 nM, the “ClpC2 Western blot signal” value (ClpC2 [2]) is reported as “increases by several orders of magnitude” and the “ClpC2 level in excess of ClpC1” value (ClpC2 [3]) is reported as 84 fold. The FITC-casein degradation rate ([4]; 0 μM ClpC2, 37 °C, replicate 1) was 8.073 min⁻¹, the FITC-casein degradation rate ([4]; 0 μM ClpC2, 37 °C, replicate 2) was 7.688 min⁻¹ and the FITC-casein degradation rate ([4]; 0 μM ClpC2, 37 °C, replicate 3) was 7.795 min⁻¹. It also gave an FITC-casein degradation rate ([4]; 0.2 μM ClpC2, 37 °C, replicate 1) of 7.586 min⁻¹, an FITC-casein degradation rate ([4]; 0.2 μM ClpC2, 37 °C, replicate 2) of 7.529 min⁻¹ and an FITC-casein degradation rate ([4]; 0.2 μM ClpC2, 37 °C, replicate 3) of 6.77 min⁻¹. The FITC-casein degradation rate ([4]; 0.5 μM ClpC2, 37 °C, replicate 1) was 6.271 min⁻¹, the FITC-casein degradation rate ([4]; 0.5 μM ClpC2, 37 °C, replicate 2) was 6.851 min⁻¹ and the FITC-casein degradation rate ([4]; 0.5 μM ClpC2, 37 °C, replicate 3) was 6.213 min⁻¹. It also gave an FITC-casein degradation rate ([4]; 1 μM ClpC2, 37 °C, replicate 1) of 6.248 min⁻¹, an FITC-casein degradation rate ([4]; 1 μM ClpC2, 37 °C, replicate 2) of 6.426 min⁻¹ and an FITC-casein degradation rate ([4]; 1 μM ClpC2, 37 °C, replicate 3) of 5.933 min⁻¹. For the same molecule, the FITC-casein degradation rate ([4]; 2 μM ClpC2, 37 °C, replicate 1) was 4.9721 min⁻¹, the FITC-casein degradation rate ([4]; 2 μM ClpC2, 37 °C, replicate 2) was 4.555 min⁻¹ and the FITC-casein degradation rate ([4]; 2 μM ClpC2, 37 °C, replicate 3) was 5.043 min⁻¹. For the same molecule, the FITC-casein degradation rate ([4]; 4 μM ClpC2, 37 °C, replicate 1) was 4.194 min⁻¹, the FITC-casein degradation rate ([4]; 4 μM ClpC2, 37 °C, replicate 2) was 4.045 min⁻¹ and the FITC-casein degradation rate ([4]; 4 μM ClpC2, 37 °C, replicate 3) was 3.662 min⁻¹. It also gave an FITC-casein degradation rate ([4]; 8 μM ClpC2, 37 °C, replicate 1) of 3.41 min⁻¹, an FITC-casein degradation rate ([4]; 8 μM ClpC2, 37 °C, replicate 2) of 3.29 min⁻¹ and an FITC-casein degradation rate ([4]; 8 μM ClpC2, 37 °C, replicate 3) of 3.596 min⁻¹. For the same molecule, the FITC-casein degradation rate ([4]; 12 μM ClpC2, 37 °C, replicate 1) was 3.454 min⁻¹, the FITC-casein degradation rate ([4]; 12 μM ClpC2, 37 °C, replicate 2) was 2.89 min⁻¹ and the FITC-casein degradation rate ([4]; 12 μM ClpC2, 37 °C, replicate 3) was 2.828 min⁻¹. It also gave an FITC-casein degradation rate ([4]; 18 μM ClpC2, 37 °C, replicate 1) of 3.091 min⁻¹, an FITC-casein degradation rate ([4]; 18 μM ClpC2, 37 °C, replicate 2) of 2.23 min⁻¹ and an FITC-casein degradation rate ([4]; 18 μM ClpC2, 37 °C, replicate 3) of 2.386 min⁻¹. For the same molecule, the “Cq value ClpC2” value (clpC2 mRNA; replicate 1) was 21.9726, the “Cq value RpoB (reference gene)” value (clpC2 mRNA; replicate 1) was 23.9629 and the “Cq value ClpC2” value (clpC2 mRNA; replicate 2) was 21.7648. For the same molecule, the “Cq value RpoB (reference gene)” value (clpC2 mRNA; replicate 2) was 24.1812, the “Cq value ClpC2” value (clpC2 mRNA; replicate 3) was 20.9483 and the “Cq value RpoB (reference gene)” value (clpC2 mRNA; replicate 3) was 23.5984. The “increase in clpC2 mRNA” value (clpC2 mRNA; one hour, normalised to rpoB, biological n = 3, P = 0.0015 (two-tailed unpaired t test)) was 263 fold, the “fraction of DNA bound to ClpC2” value ([5]; 1 nM ClpC2, replicate 1) was 0 and the “fraction of DNA bound to ClpC2” value ([5]; 1 nM ClpC2, replicate 2) was 0.02788. For the same molecule, the “fraction of DNA bound to ClpC2” value ([5]; 1 nM ClpC2, replicate 3) was 0.04348, the “fraction of DNA bound to ClpC2” value ([5]; 2 nM ClpC2, replicate 1) was 0 and the “fraction of DNA bound to ClpC2” value ([5]; 2 nM ClpC2, replicate 2) was 0.03704. The “fraction of DNA bound to ClpC2” value ([5]; 2 nM ClpC2, replicate 3) was 0.05455, the “fraction of DNA bound to ClpC2” value ([5]; 5 nM ClpC2, replicate 1) was 0.09091 and the “fraction of DNA bound to ClpC2” value ([5]; 5 nM ClpC2, replicate 2) was 0.08. The “fraction of DNA bound to ClpC2” value ([5]; 5 nM ClpC2, replicate 3) was 0.06873, the “fraction of DNA bound to ClpC2” value ([5]; 10 nM ClpC2, replicate 1) was 0.1629 and the “fraction of DNA bound to ClpC2” value ([5]; 10 nM ClpC2, replicate 2) was 0.1615. The “fraction of DNA bound to ClpC2” value ([5]; 10 nM ClpC2, replicate 3) was 0.1694, the “fraction of DNA bound to ClpC2” value ([5]; 15 nM ClpC2, replicate 1) was 0.2974 and the “fraction of DNA bound to ClpC2” value ([5]; 15 nM ClpC2, replicate 2) was 0.2686. For the same molecule, the “fraction of DNA bound to ClpC2” value ([5]; 15 nM ClpC2, replicate 3) was 0.2612, the “fraction of DNA bound to ClpC2” value ([5]; 25 nM ClpC2, replicate 1) was 0.5671 and the “fraction of DNA bound to ClpC2” value ([5]; 25 nM ClpC2, replicate 2) was 0.4781. The “fraction of DNA bound to ClpC2” value ([5]; 25 nM ClpC2, replicate 3) was 0.3902, the “fraction of DNA bound to ClpC2” value ([5]; 50 nM ClpC2, replicate 1) was 0.7982 and the “fraction of DNA bound to ClpC2” value ([5]; 50 nM ClpC2, replicate 2) was 0.7344. The “fraction of DNA bound to ClpC2” value ([5]; 50 nM ClpC2, replicate 3) was 0.731, the “effect of CymA on ClpC2-operator DNA binding” value ([5]; EMSA, 1 µM CymA, room temperature, 20 min, pH 7.5) was “noticeable inhibitory effect on the interaction between ClpC2 and its operator site” and the “ClpC1 level after CymA” value (ClpC1 [6]) was “remained fairly constant”. For the same molecule, the activity against mycobacteria (mycobacteria) was “effective against mycobacteria”, the “activity against Escherichia coli” value (Escherichia coli) was “little activity” and the “activity against Staphylococcus aureus” value (Staphylococcus aureus) was “little activity”. The target binding domain (ClpC1 NTD) was “specifically target ClpC1 NTD”, the “effect on ClpC1 ATPase and proteolytic activity” value (ClpC1 [7]) was “enhance the ATPase and proteolytic activity as well as reduce substrate specificity of ClpC1” and the “growth of ΔclpC2 with CymA” value (Mycobacterium smegmatis; Msm ΔclpC2, sub-MIC50 CymA (150 nM), 7H9, 37 °C, vs parent strain) was “diminished growth compared to the parent strain”. The “growth of comclpC2 F99A with CymA” value (Mycobacterium smegmatis; Msm ΔclpC2 complemented with clpC2 F99A, 150 nM CymA, 7H9, 37 °C) was “attenuated growth upon exposure to CymA”, the “growth of comclpC2 R188A/R192A with CymA” value (Mycobacterium smegmatis; Msm ΔclpC2 complemented with clpC2 R188A/R192A, in the presence of CymA) was “lack of growth impairment” and the “growth of comclpC2 WT with CymA” value (Mycobacterium smegmatis; Msm ΔclpC2 complemented with clpC2 WT, 150 nM CymA, 7H9, 37 °C) was “the WT phenotype was restored”.
